From PubChem BioAssay AID1259408 (Genetic Toxicology Data Bank (GENE-TOX), 2018)
The source made the active and inactive calls. No rule for the calls is given here.

Test system: GENE-TOX genotoxicity assays, various organisms and cells
Experiment: GENE-TOX mutagenicity studies
Details: for call: Assay Type: In vivo carcinogenicity studies
[1] = Species/Cell Type: Mammalian polychromatic erythrocytes, Assay Type: Micronucleus test, chromosome aberrations, Assay Code: MNTT, Evaluation Type: Evaluation A (Pre-1980)
[2] = Species/Cell Type: Mouse, Sex: Male, Assay Type: Sperm morphology, Assay Code: SPI-, Evaluation Type: Evaluation A (Pre-1980)
[3] = Species/Cell Type: Salmonella typhimurium (one or more of the five standard strains: TA98, TA100, TA1535, TA1537, and TA1538), Assay Type: Histidine reverse gene mutation, Ames assay, Assay Code: SAL+*, Activation: With metabolic activation, Evaluation Type: Evaluation A (Pre-1980)
[4] = Species/Cell Type: Human diploid fibroblasts, Assay Type: Unscheduled DNA synthesis (UDS) in vitro, DNA effects, Assay Code: UDH-, Evaluation Type: Evaluation A (Pre-1980)
[5] = Species/Cell Type: Saccharomyces cerevisiae, Assay Type: Reverse gene mutation, Assay Code: YERT, Evaluation Type: Evaluation A (Pre-1980)
[6] = Species/Cell Type: Nonhuman, Assay Type: Sister-chromatid exchange (SCE) in vitro, Assay Code: SC2+D, Dose Response: With dose response, Evaluation Type: Evaluation B (Post-1980)
[7] = Species/Cell Type: Salmonella typhimurium (one or more of the five standard strains: TA98, TA100, TA1535, TA1537, and TA1538), Assay Type: Histidine reverse gene mutation, Ames assay, Assay Code: SAL+, Evaluation Type: Evaluation A (Pre-1980)
[8] = Species/Cell Type: Salmonella typhimurium (one or more of the five standard strains: TA98, TA100, TA1535, TA1537, and TA1538), Assay Type: Histidine reverse gene mutation, Ames assay, Assay Code: SALT, Evaluation Type: Evaluation A (Pre-1980)
[9] = Species/Cell Type: Nonhuman, Assay Code: CCG+, Evaluation Type: Evaluation A (Pre-1980)
[10] = Species/Cell Type: Chinese hamster ovary (CHO) cells, Assay Type: Forward gene mutation at the HPRT locus, Assay Code: CHOT, Evaluation Type: Evaluation B (Post-1980)
[11] = Species/Cell Type: Bacillus subtilis (H17 vs M45), Assay Type: Rec-assay, spot test, DNA effects (bacterial DNA repair), Assay Code: REWT, Evaluation Type: Evaluation A (Pre-1980)
[12] = Species/Cell Type: Salmonella typhimurium (one or more of the five standard strains: TA98, TA100, TA1535, TA1537, and TA1538), Assay Type: Histidine reverse gene mutation, Ames assay, Assay Code: SAL-, Evaluation Type: Evaluation A (Pre-1980)
[13] = Species/Cell Type: Human, Assay Type: Sister-chromatid exchange (SCE) in vitro, Assay Code: SC1T, Evaluation Type: Evaluation B (Post-1980)
[14] = Species/Cell Type: Mammalian polychromatic erythrocytes, Assay Type: Micronucleus test, chromosome aberrations, Assay Code: MNTT, Evaluation Type: Evaluation B (Post-1980)

For `CC(Cl)(Cl)Cl`, the mutagenic call (Species/Cell Type: Fischer rat embryo (RLV/1706) cells, Assay Type: Cell transformation, viral enhanced, Assay Code: CTR+, Evaluation Type: Evaluation A (Pre-1980)) was “active; positive”, the mutagenic call [1] was “no conclusion” and the mutagenic call [2] was “inactive; negative”. The call (Species/Cell Type: Nonhuman, Assay Code: CCGT, Evaluation Type: Evaluation A (Pre-1980)) was “no conclusion” and the mutagenic call (Species/Cell Type: Nonhuman, Assay Type: Sister-chromatid exchange (SCE) in vitro, Assay Code: SC2+, Evaluation Type: Evaluation B (Post-1980)) was “active; positive”.
`O=C1c2cc(O)ccc2-c2ccc(O)c3cccc1c23` was tested, and the mutagenic call [3] was “active; positive”.
With `C=CCC1=C(C)C(OC(=O)[C@@H]2[C@@H](C=C(C)C)C2(C)C)CC1=O` (stereo not given in full) the mutagenic call [4] was “inactive; negative” and the mutagenic call (Species/Cell Type: Saccharomyces cerevisiae, Assay Type: Mitotic recombination or gene conversion, Assay Code: YEH-, Evaluation Type: Evaluation A (Pre-1980)) was “inactive; negative”.
In the case of `O=C(COc1ccc(Br)cc1CN1CCOCC1)N/N=C/c1ccccc1O`, the mutagenic call [5] is reported as “no conclusion”.
`Nc1ccc2c(ccc3ccccc32)n1` was tested, and the mutagenic call [3] was “active; positive”.
With `N/C(=N\O)c1ccc([N+](=O)[O-])o1` the mutagenic call [6] was “active; positive” and the mutagenic call [7] was “active; positive”.
With `COC12C(=O)N(C)C(=O)N(C)C1(OC)N(C)C(=O)N2C` (stereo not given) the mutagenic call (Species/Cell Type: Allium cepa, Assay Type: Chromosome aberrations, Assay Code: ALC-, Evaluation Type: Evaluation A (Pre-1980)) was “inactive; negative”.
`O=Nc1ccc2ccccc2c1` was tested, and the mutagenic call [7] was “active; positive”.
With `CS(=O)(=O)OCCNP1(=O)OCCCN1CCCl` (stereo not given) the mutagenic call (Species/Cell Type: Mammalian polychromatic erythrocytes, Assay Type: Micronucleus test, chromosome aberrations, Assay Code: MNT+U, Dose Response: Unconfirmed positive response, Evaluation Type: Evaluation A (Pre-1980)) was “active; positive”.
With `O=C1c2c(O)ccc(O)c2C(=O)c2c(NCCc3ccccc3)ccc(NCCc3ccccc3)c21` the mutagenic call (Species/Cell Type: Salmonella typhimurium (one or more of the five standard strains: TA98, TA100, TA1535, TA1537, and TA1538), Assay Type: Histidine reverse gene mutation, Ames assay, Assay Code: SAL+/-*, Activation: With metabolic activation, Evaluation Type: Evaluation A (Pre-1980)) was “inactive; positive without activation, negative with activation”.
`COC(=O)c1ccc(N=Nc2ccc(N(C)OC(C)=O)cc2)cc1` was tested, and the mutagenic call [7] was “active; positive”.
`Cc1cc(C(=O)NNCc2ccccc2)no1` was tested, and the mutagenic call (Species/Cell Type: Nonhuman, Assay Type: Sister-chromatid exchange (SCE) in vivo, Assay Code: SC3+, Evaluation Type: Evaluation B (Post-1980)) was “active; positive”.
For `COc1ccc2c(c1)OC(C)(C)[C@@H](c1ccccc1)[C@@H]2c1ccc(OCCN2CCCC2)cc1`, the mutagenic call (Species/Cell Type: Human, Sex: Male, Assay Type: Sperm morphology, Assay Code: SPHT, Evaluation Type: Evaluation A (Pre-1980)) was “no conclusion”.
In the case of `CCCCNc1ccc(C(=O)OCCN(C)C)cc1`, the mutagenic call [8] is reported as “no conclusion”.
For `c1ccc2c(c1)cc1ccc3c4ccccc4cc4ccc2c1c43`, the call [9] was “active; positive”.
In the case of `O=C1CCCc2c1ccc1c2ccc2ccccc21`, the mutagenic call [3] is reported as “active; positive”.
In the case of `CN(CC(=O)O)N=O`, the call [9] is reported as “active; positive” and the mutagenic call (Species/Cell Type: Salmonella typhimurium, Assay Type: Forward and reverse gene mutation, host-mediated assay, Assay Code: HMA-, Evaluation Type: Evaluation A (Pre-1980)) is reported as “inactive; negative”.
`COc1cc([C@@H]2c3cc4c(cc3[C@@H](O)[C@H]3COC(=O)[C@H]23)OCO4)cc(OC)c1O` was tested, and the mutagenic call [10] was “no conclusion”.
In the case of `CCNNCC`, the call [9] is reported as “active; positive”.
`CC(=O)Nc1ccc2c(ccc3ccccc32)c1` was tested, and the mutagenic call [4] was “inactive; negative” and the call (Species/Cell Type: Nonhuman, Assay Code: CCG+L, Evaluation Type: Evaluation A (Pre-1980)) was “active; positive”.
In the case of `O=C(N[C@@H](CO)[C@@H](O)c1ccc([N+](=O)[O-])cc1)C(Cl)Cl`, the mutagenic call [7] is reported as “active; positive”.
`C[n+]1c2ccccc2cc2cccc(N)c21` was tested, and the mutagenic call (Species/Cell Type: Saccharomyces cerevisiae, Assay Type: Forward gene mutation, Assay Code: YEF+, Evaluation Type: Evaluation A (Pre-1980)) was “active; positive”.
For `CSCC[C@H](N)C(=O)O`, the mutagenic call [1] was “no conclusion”, the mutagenic call [2] was “inactive; negative” and the mutagenic call (Species/Cell Type: Nonhuman, Assay Type: Sister-chromatid exchange (SCE) in vitro, Assay Code: SC2T, Evaluation Type: Evaluation B (Post-1980)) was “no conclusion”.
In the case of `O=C1C(c2[nH]c3ccc(S(=O)(=O)O)cc3c2O)=Nc2ccc(S(=O)(=O)O)cc21`, the mutagenic call [11] is reported as “no conclusion”, the mutagenic call (Species/Cell Type: Bacillus subtilis (H17 vs M45T), Assay Type: Rec-assay, spot test, DNA effects (bacterial DNA repair), Assay Code: REXT, Evaluation Type: Evaluation A (Pre-1980)) is reported as “no conclusion” and the mutagenic call (Species/Cell Type: Saccharomyces cerevisiae, Assay Type: Mitotic recombination or gene conversion, Assay Code: YEC-, Evaluation Type: Evaluation A (Pre-1980)) is reported as “inactive; negative”. The mutagenic call [12] was “inactive; negative”.
With `O=S1(=O)OC(c2cc(Br)c(O)c(Br)c2)(c2cc(Br)c(O)c(Br)c2)c2ccccc21` the mutagenic call [8] was “no conclusion”.
`CCN(Cc1cccc(S(=O)(=O)O)c1)c1ccc(C(=C2C=CC(=[N+](CC)Cc3cccc(S(=O)(=O)O)c3)C=C2)c2ccccc2S(=O)(=O)[O-])cc1` was tested, and the mutagenic call (Species/Cell Type: Bacillus subtilis (H17 vs M45), Assay Type: Rec-assay, spot test, DNA effects (bacterial DNA repair), Assay Code: REW-, Evaluation Type: Evaluation A (Pre-1980)) was “inactive; negative” and the mutagenic call [12] was “inactive; negative”.
`C=C1C[C@@]23CC[C@H]4[C@@](C)(CCC[C@@]4(C)C(=O)O[C@@H]4O[C@H](CO)[C@@H](O)[C@H](O)[C@H]4O)[C@@H]2CC[C@]1(O[C@@H]1O[C@H](CO)[C@@H](O)[C@H](O)[C@H]1O[C@@H]1O[C@H](CO)[C@@H](O)[C@H](O)[C@H]1O)C3` was tested, and the mutagenic call [13] was “no conclusion”.
In the case of `CO[C@@]12[C@H](CO)C3=C(C(=O)C(C)=C(N)C3=O)N1C[C@@H]1N[C@@H]12`, the mutagenic call (Species/Cell Type: Human lymphocytes, Assay Type: Sister-chromatid exchange (SCE) in vitro, Assay Code: SCL+D, Dose Response: With dose response, Evaluation Type: Evaluation B (Post-1980)) is reported as “active; positive”, the mutagenic call (Species/Cell Type: Human, Assay Type: Sister-chromatid exchange (SCE) in vitro, Assay Code: SC1+D, Dose Response: With dose response, Evaluation Type: Evaluation B (Post-1980)) is reported as “active; positive” and the mutagenic call [6] is reported as “active; positive”.
With `BrCc1c2ccccc2cc2ccccc12` the mutagenic call [7] was “active; positive”.
For `CCN(CC)Cc1cc(Br)ccc1OCC(=O)NN`, the mutagenic call [5] was “no conclusion”.
For `Clc1ccc2c(Cl)ccnc2c1`, the mutagenic call [8] was “no conclusion”.
In the case of `O=C1NC(=O)C(c2ccc(O)cc2)(c2ccc(O)cc2)N1`, the mutagenic call [14] is reported as “no conclusion”.
For `[Cl][Pt-2]([Cl])([Cl])[Cl]`, the mutagenic call [10] was “no conclusion”.
`S=C1NCCCN1` was tested, and the mutagenic call [14] was “no conclusion”.
With `CC(C)C(N)C(=O)O` (stereo not given) the mutagenic call (Species/Cell Type: Escherichia coli polA (W3119 vs P3478), Assay Type: Rec-assay, DNA effects (bacterial DNA repair), Assay Code: RE1T, Evaluation Type: Evaluation A (Pre-1980)) was “no conclusion”.
In the case of `c1nncnn1`, the mutagenic call [11] is reported as “no conclusion”.
In the case of `CC=O`, the mutagenic call (Species/Cell Type: Escherichia coli polA (W3119 vs P3478), Assay Type: Rec-assay, DNA effects (bacterial DNA repair), Assay Code: RE1+, Evaluation Type: Evaluation A (Pre-1980)) is reported as “active; positive”, the mutagenic call (Species/Cell Type: Human lymphocytes, Assay Type: Sister-chromatid exchange (SCE) in vitro, Assay Code: SCL+D, Dose Response: With dose response, Evaluation Type: Evaluation A (Pre-1980)) is reported as “active; positive” and the mutagenic call (Species/Cell Type: Human, Assay Type: Sister-chromatid exchange (SCE) in vitro, Assay Code: SC1+D, Dose Response: With dose response, Evaluation Type: Evaluation A (Pre-1980)) is reported as “active; positive”. The mutagenic call (Species/Cell Type: Nonhuman, Assay Type: Sister-chromatid exchange (SCE) in vitro, Assay Code: SC2+, Evaluation Type: Evaluation A (Pre-1980)) was “active; positive” and the mutagenic call (Species/Cell Type: Nonhuman, Assay Type: Sister-chromatid exchange (SCE) in vivo, Assay Code: SC3+D, Dose Response: With dose response, Evaluation Type: Evaluation B (Post-1980)) was “active; positive”.
`C=CC(O)c1ccc(OC)cc1` (stereo not given) was tested, and the mutagenic call [8] was “no conclusion”.
With `CC(Br)CBr` (stereo not given) the mutagenic call (Species/Cell Type: Drosophila melanogaster, Assay Type: Sex-linked recessive lethal gene mutation, Assay Code: SRL+, Evaluation Type: Evaluation A (Pre-1980)) was “active; positive”.
In the case of `Cn1sccc1=O`, the mutagenic call (Species/Cell Type: Mammalian polychromatic erythrocytes, Assay Type: Micronucleus test, chromosome aberrations, Assay Code: MNT-, Evaluation Type: Evaluation B (Post-1980)) is reported as “inactive; negative”.
With `O=Cc1ccccc1[N+](=O)[O-]` the mutagenic call [7] was “active; positive”.
In the case of `CC(=O)Nc1ccccc1O`, the mutagenic call [13] is reported as “no conclusion”.
For `C1=Cc2c(ccc3c2ccc2ccccc23)C1`, the mutagenic call [3] was “active; positive”.
In the case of `O=CNc1nc(-c2cc([N+](=O)[O-])cs2)cs1`, the mutagenic call [7] is reported as “active; positive”.
In the case of `O=C(O)C1(O)C[C@@H](O)C(O)[C@H](O)C1` (stereo not given in full), the mutagenic call [12] is reported as “inactive; negative”.
